pIC50: −log10 of the molar value.

The values below come from patent US5733913A, “6-Aryl pyrido[2,3-d] pyrimidines and naphthyridines for inhibiting protein tyrosine kinase mediated cellular proliferation” (priority 1995, dated 1998).

The target in test [1] is T1, mouse PDGF-β receptor tyrosine kinase (Mus musculus, UniProt P05622).
T1 construct: a fragment of DNA that codes for the intracellular tyrosine kinase domain; made in house; host or cells: Sf9 insect cells (baculovirus), cell lysate
The test is described as follows: PDGF receptor tyrosine kinase assay. It counts as biochemical. The note with it: for pIC50: read-out: Inhibition of Protein Tyrosine Kinases, PDGF, IC50; for inhibition at 50 µM: read-out: Inhibition of Protein Tyrosine Kinases, PDGF, % Inhibition. Put shortly: (§1)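 Intracellular kinase domains expressed in baculovirus-infected SF9 cells; crude lysate used as enzyme. Inhibitor preincubated 10 min at 25 °C with lysate in pH 7.0 Hepes buffer with 10 mM MnCl2 and poly(Glu-Tyr) 4:1, then γ-32P-ATP (50 μM ATP) added for 10 min at 25 °C. TCA-precipitated 32P on filters counted, no-enzyme background subtracted.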

Test [2] concerns the target T2, Human EGF receptor tyrosine kinase (Homo sapiens, UniProt P00533).
T2 construct: isolated from A431 epidermoid carcinoma cells; endogenous in cells; host or cells: A431 epidermoid carcinoma cells (Triton lysate, wheat germ agglutinin eluate)
The test is described as follows: EGF receptor tyrosine kinase assay. To be noted: for inhibition at 50 µM: read-out: Inhibition of Protein Tyrosine Kinases, EGF, % Inhibition; for pIC50: read-out: Inhibition of Protein Tyrosine Kinases, EGF, IC50. It is filed as biochemical. As to the method:
Purification of Epidermal Growth Factor Receptor Tyrosine Kinase
Human EGF receptor tyrosine kinase was isolated from A431 epidermoid carcinoma cells by the following methods. Cells were grown in roller bottles in 50% Delbuco's Modified Eagle and 50% HAM F-12 nutrient media (Gibco) containing 10% fetal calf serum. Approximately 10^9 cells were lysed in two volumes of buffer containing 20 mM 2-(4N-[2-hydroxyethyl]piperazin-1-yl)ethanesulfonic acid, pH 7.4, 5 mM ethylene glycol bis(2-aminoethyl ether)N,N,N',N'-tetraacetic acid, 1% Triton X-100, 10% glycerol, 0.1 mM sodium orthovanadate, 5 mM sodium fluoride, 4 mM pyrophosphate, 4 mM benzamide, 1 mM dithiothreitol, 80 μg/mL aprotinin, 40 μg/mL leupeptin, and 1 mM phenylmethylsulfonyl fluoride. After centrifugation at 25,000×g for 10 minutes, the supernatant was equilibrated for 2 hours at 4° C. with 10 mL of wheat germ agglutinin sepharose that was previously equilibrated with 50 mM Hepes, 10% glycerol, 0.1% Triton X-100 and 150 mM NaCl, pH 7.5, (equilibration buffer). Contaminating proteins were washed from the resin with 1M NaCl in equilibration buffer, and the enzyme was eluted with 0.5M N-acetyl-1-D-glucosamine in equilibration buffer.
Determination of IC50 Values
The reaction was terminated by the addition of 2 mL of 75 mM phosphoric acid and passed through a 2.5-cm phosphocellulose filter disc to bind the peptide. The filter was washed five times with 75 mM phosphoric acid and placed in a vial along with 5 mL of scintillation fluid (Ready gel Beckman).

For test [3], the target named is T3, human FGF-1 (flg) receptor tyrosine kinase (Homo sapiens, UniProt P11362).
T3 construct: a fragment of DNA that codes for the intracellular tyrosine kinase domain; made in house; host or cells: Sf9 insect cells (baculovirus), cell lysate
The test is described as follows: FGF receptor tyrosine kinase assay. It counts as biochemical. To be noted: for pIC50: read-out: Inhibition of Protein Tyrosine Kinases, FGF, IC50. Put shortly:
as §1

The next test relates to V-src kinase. Nature of the test: V-src kinase assay. It counts as biochemical. To be noted: at 50 μM. Here is the method:
V-src and C-src Kinase Assays
V-src or C-src kinase is purified from baculovirus infected insect cell lysates using an antipeptide monoclonal antibody directed against the N-terminal 2-17 amino acids. The antibody, covalently linked to 0.65-μm latex beads, is added to a suspension of insect cell lysis buffer comprised of 150 mM NaCl, 50 mM Tris pH 7.5, 1 mM DTT, 1% NP-40, 2 mM EGTA, 1 mM sodium vanadate, 1 mM PMSF, 1 μg/mL each of leupeptin, pepstatin, and aprotinin. Insect cell lysate containing either the c-src or v-src protein is incubated with these beads for 3-4 hours at 4° C. with rotation. At the end of the lysate incubation, the beads are rinsed 3 times in lysis buffer, resuspended in lysis buffer containing 10% glycerol, and frozen. These latex beads are thawed, rinsed three times in assay buffer which is comprised of 40 mM tris pH 7.5, 5 mM MgCl2, and suspended in the same buffer. In a Millipore 96-well plate with a 0.65 μm polyvinylidine membrane bottom are added the reaction components: 10-μL v-src or c-src beads, 10 μL of 2.5 mg/mL poly GluTyr substrate, 5 μM ATP containing 0.2 μCi labeled ^32 P-ATP, 5μL DMSO containing inhibitors or as a solvent control, and buffer to make the final volume 125 μL. The reaction is started at room temperature by addition of the ATP and quenched 10 minutes later by the addition of 125 μL of 30% TCA, 0.1M sodium pyrophosphate for 5 minutes on ice. The plate is then filtered and the wells washed with two 250-μL aliquots of 15% TCA, 0.1M pyrophosphate. The filters are punched, counted in a liquid scintillation counter, and the data examined for inhibitory activity in comparison to a known inhibitor such as erbstatin. The method is described more fully in J. Med. Chem., 37:598-609 (1994).

A further test has as its target T4, C-src kinase (Homo sapiens, UniProt P12931).
T4 construct: made in house; host or cells: baculovirus-infected insect cells
Nature of the test: C-src kinase assay. It is filed as biochemical. To be noted: for pIC50: read-out: Inhibition of Protein Tyrosine Kinases, C-src, IC50; for inhibition at 50 µM: read-out: Inhibition of Protein Tyrosine Kinases, C-src, % Inhibition. The gist of the method: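 Baculovirus-expressed c-src immunopurified on antibody-coated latex beads, assayed in 40 mM Tris pH 7.5, 5 mM MgCl2 with poly GluTyr substrate and 5 μM ATP plus 32P-ATP. Reaction 10 min at room temperature, TCA-quenched, filtered; incorporated label counted by scintillation.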

A further test has as its system PDGF receptor. The test is described as follows: PDGF receptor autophosphorylation in RASMC. It counts as cell-based, rat. The note with it: PDGF-BB 30 ng/mL, read-out: Inhibition of PDGF Stimulated Receptor Auto Phosphorylation (IC50).

T3 sequence (P11362 478-767 limits assumed): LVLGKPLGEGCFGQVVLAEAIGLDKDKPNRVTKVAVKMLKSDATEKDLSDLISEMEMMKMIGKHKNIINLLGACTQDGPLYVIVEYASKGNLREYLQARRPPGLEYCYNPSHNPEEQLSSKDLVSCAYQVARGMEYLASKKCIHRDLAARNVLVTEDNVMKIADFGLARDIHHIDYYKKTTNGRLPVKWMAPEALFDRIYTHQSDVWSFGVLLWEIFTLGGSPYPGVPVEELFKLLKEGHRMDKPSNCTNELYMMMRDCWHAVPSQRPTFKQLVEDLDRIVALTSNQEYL
T1 sequence (P05622 599-961 limits assumed): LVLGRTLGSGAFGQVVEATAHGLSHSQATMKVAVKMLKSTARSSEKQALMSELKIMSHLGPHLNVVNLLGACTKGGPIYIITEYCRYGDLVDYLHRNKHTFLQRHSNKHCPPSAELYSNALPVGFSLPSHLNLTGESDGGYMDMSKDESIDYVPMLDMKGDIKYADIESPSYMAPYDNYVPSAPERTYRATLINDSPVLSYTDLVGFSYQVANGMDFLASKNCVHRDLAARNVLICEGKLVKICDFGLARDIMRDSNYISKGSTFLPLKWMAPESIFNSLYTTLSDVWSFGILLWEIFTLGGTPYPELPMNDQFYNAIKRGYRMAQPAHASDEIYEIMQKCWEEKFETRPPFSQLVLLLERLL

As for “1-[2-Amino-6-(2,6-dichlorophenyl)-pyrido[2,3-d]pyrimidin-7-yl]-3-(3-morpholin-4-yl-propyl)-thiourea [Example 23]”, the negative-log IC50 (pIC50) in test [1] is 5.35; in test [3], 6.54; on C-src kinase it was 6.21. Further, the “Inhibition of Protein Tyrosine Kinases, EGF, % Inhibition” value in test [2] (at 50 μM) was 104.8%. Besides, the “Inhibition of Protein Tyrosine Kinases, V-src, % Inhibition” value (“Inhibition … V-src, % Inhibition” below) in the test with V-src kinase is on record as 10.2%.

As for `CC(C)(C)NC(=O)Nc1ncc2cc(-c3c(Cl)cccc3Cl)c(NC(=O)NC(C)(C)C)nc2n1` [Example 2, 1-tert-Butyl-3-[7-(3-tert-butylureido)-6-(2,6-dichlorophenyl)-pyrido[2,3-d]pyrimidin-2-yl]urea], the negative-log IC50 (pIC50) in test [1] is 4.99; in test [3] it was 5.80; on C-src kinase, 4.71. For the same compound, the inhibition at 50 µM in test [2] (at 50 μM) came out at 52.3%.

For the compound `Cc1ccccc1-c1cc2cnc(NC(=O)NC(C)(C)C)nc2nc1NC(=O)NC(C)(C)C` [Example 4, 1-tert-Butyl-3-[7-(3-tert-butylureido)-6-o-tolyl-pyrido[2,3-d]pyrimidin-2-yl]urea], the inhibition at 50 µM in test [1] was found to be 31.9%; in test [2] (at 50 μM) it was 36.6%; in test [3] (at 50 μM, read-out: Inhibition of Protein Tyrosine Kinases, FGF, % Inhibition) it was 21.5%; on C-src kinase, 33.6%. Besides, in the test with V-src kinase, the “Inhibition … V-src, % Inhibition” value is 3.1%.

Regarding `Cc1ccccc1-c1cc2cnc(N)nc2nc1NC(=O)NC(C)(C)C` [Example 5, 1-[2-Amino-6-o-tolyl-pyrido[2,3-d]pyrimidin-7-yl]-3-tert-butylurea], the negative logarithm of the IC50 (pIC50) is 6.33 in test [1], 6.03 in test [2], 5.85 in test [3] and 6.39 at C-src kinase. Further, in the test with V-src kinase, the “Inhibition … V-src, % Inhibition” value is on record as 23.3%.

Turning to `Cc1cccc(C)c1-c1cc2cnc(N)nc2nc1NC(=O)NC(C)(C)C` [Example 6, 1-[2-Amino-6-(2,6-dimethylphenyl)-pyrido[2,3-d]pyrimidin-7-yl]-3-tert-butylurea], the pIC50 in test [2] is 6.34; in the test with PDGF receptor, 6.46; in test [3], 6.40. For the same compound, the “Inhibition … V-src, % Inhibition” value in the test on V-src kinase came to 39.8%.

Take `CC(=O)Nc1ncc2cc(-c3c(Cl)cccc3Cl)c(NC(C)=O)nc2n1` [Example 7, N-[2-Acetylamino-6-(2,6-dichlorophenyl)-pyrido[2,3-d]pyrimidin-7-yl]-acetamide]: the results for the inhibition at 50 µM in test [1] and in test [2] (at 50 μM) were 33.5% and 25.1%, respectively. Besides, the pIC50 in test [3] is 4.75; at C-src kinase it was 5.64. Moreover, in the test on V-src kinase, the “Inhibition … V-src, % Inhibition” value is listed as 7.6%.

Take `Cc1ccccc1-c1cc2cnc(N)cc2nc1N` [Example 16, 3-o-Tolyl-[1,6]naphthyridine-2,7-diamine]: the pIC50 in test [1] is 4.97; in test [2] it was 5.15; in test [3], 5.04; on C-src kinase, 5.86. For the same compound, in the test with V-src kinase, the “Inhibition … V-src, % Inhibition” value is on record as 10.3%.

Turning to `Nc1cc2nc(N)c(-c3ccccc3Cl)cc2cn1` [Example 17, 3-(2-Chlorophenyl)-[1,6]naphthyridine-2,7-diamine], the pIC50 is 4.57 in test [1], 5.14 in test [2], 5.35 in test [3] and 5.56 on C-src kinase. Further, the “Inhibition … V-src, % Inhibition” value with V-src kinase is 5.3%.

`CNc1ncc2cc(-c3ccccc3)c(NC)nc2n1` [Example 19, N^2,N^7 -Dimethyl-6-phenyl-pyrido[2,3-d]pyrimidine-2,7-diamine]: the figures for the inhibition at 50 µM (in test [1]; in test [2] (at 50 μM); on C-src kinase) were 47.7%, 26.1% and 52.8%, respectively. In addition, the pIC50 in test [3] was 4.77. Further, the “Inhibition … V-src, % Inhibition” value in the test on V-src kinase turned out to be 5.2%.

Turning to `CCN(CC)CCCNc1ncc2cc(-c3c(Cl)cccc3Cl)c(NC(=O)NC(C)(C)C)nc2n1` [Example 21, 1-tert-Butyl-3-[6-(2,6-dichlorophenyl)-2-(3-diethylamino-propylamino)-pyrido[2,3-d]pyrimidin-7-yl]-urea], the pIC50 in test [1] is 6.18; in test [2] it was 5.16; with PDGF receptor, 5.74; in test [3] it was 7.08; at C-src kinase it was 7.14. Besides, the “Inhibition … V-src, % Inhibition” value in the test on V-src kinase is given as 49.4%.

As to `CCNC(=O)Nc1nc2nc(N)ncc2cc1-c1c(Cl)cccc1Cl` [Example 22, 1-[2-Amino-6-(2,6-dichlorophenyl)-pyrido[2,3-d]pyrimidin-7-yl]-3-ethylurea], the pIC50 is 5.89 in test [1], 5.43 with PDGF receptor, 6.89 in test [3] and 7.11 at C-src kinase. Further, the inhibition at 50 µM in test [2] (at 50 μM) stood at 90.4%. Also, the “Inhibition … V-src, % Inhibition” value with V-src kinase was 46.9%.

For the compound `Nc1ncc2cc(-c3c(Cl)cccc3Cl)c(NC3=NCCO3)nc2n1` [Example 24, 2-[2-Amino-6-(2,6-dichlorophenyl)-pyrido[2,3-d]pyrimidin-7-yl]-amino-4,5-dihydro-oxazole], the results for the negative logarithm of the IC50 (pIC50) (in test [1]; in test [3]; at C-src kinase) were 4.94, 5.14 and 6.67, respectively. Moreover, the inhibition at 50 µM in test [2] (at 50 μM) came to 58.3%.

`CCCCNC(=O)Nc1ncc2cc(-c3c(Cl)cccc3Cl)c(NC(=O)NCCCC)nc2n1` [Example 25, 1-Butyl-3-[7-(3-butyl-ureido)-6-(2,6-dichlorophenyl)-pyrido[2,3-d]pyrimidin-2-yl]-urea]: the results for the pIC50 (in test [1]; in test [3]; on C-src kinase) were 5.22, 4.93 and 6.68, respectively. Also, the inhibition at 50 µM in test [2] (at 50 μM) worked out at 57.5%. The “Inhibition … V-src, % Inhibition” value in the test on V-src kinase came out at 0.0%.

Regarding `CC(C)(C)NC(=O)Nc1nc2nc(N)ncc2cc1-c1c(Br)cccc1Br` [Example 88, 1-[2-Amino-6-(2,6-dibromo-phenyl)-pyrido[2,3-d]pyrimidin-7-yl]-3-tert-butyl-urea], the values for the negative-log IC50 (pIC50) (in test [1]; in test [3]; at C-src kinase) were 6.15, 6.83 and 6.67, respectively. Further, the inhibition at 50 µM in test [2] (at 50 μM) worked out at 34.4%.

The term pIC50 denotes the IC50 on a negative log10 scale, so that one unit is a factor of ten. For orientation: inhibition means the change of the read-out against control, counted positive when it falls.
